Laboratory results taken from ChEMBL document CHEMBL1201862, “PubChem BioAssay data set” (2004).
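Dose response: 5 concentrations. Exposure: 48 h. Format: 96-well plates. Endpoint: linear interpolation; highest concentration if not reached. At the GI50, growth is halved.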 Calls of active or inactive are those of the source. Cut-off read from the data, not from the text of the source: active = GI50 up to about 1.1 µM and inactive = higher.

Assays:
Experiment in all cases: NCI anticancer screen, dose series, 48 h
786-0 = tested on: 786-0
HT-29 = tested on: HT-29
K562 = tested on: K562
A498 = tested on: A498
DU-145 = tested on: DU-145
SR = tested on: SR
CAKI-1 = tested on: CAKI-1
SN12C = tested on: SN12C
HCC 2998 = tested on: HCC 2998
BT-549 = tested on: BT-549
MDA-MB-231 = tested on: MDA-MB-231
Hs-578T = tested on: Hs-578T
HCT-116 = tested on: HCT-116
OVCAR-8 = tested on: OVCAR-8
UACC-62 = tested on: UACC-62
MOLT-4 = tested on: MOLT-4
SNB-75 = tested on: SNB-75
OVCAR-5 = tested on: OVCAR-5
OVCAR-3 = tested on: OVCAR-3
RPMI-8226 = tested on: RPMI-8226
MDA-MB-435 = tested on: MDA-MB-435
RXF 393 = tested on: RXF 393
ACHN = tested on: ACHN
PC-3 = tested on: PC-3
SK-OV-3 = tested on: SK-OV-3
Malme-3M = tested on: Malme-3M
UO-31 = tested on: UO-31
TK-10 = tested on: TK-10
KM12 = tested on: KM12
SW-620 = tested on: SW-620
IGROV-1 = tested on: IGROV-1
NCI-H226 = tested on: NCI-H226
MDA-N = tested on: MDA-N
SF-295 = tested on: SF-295
MCF7 = tested on: MCF7
HCT-15 = tested on: HCT-15
SK-MEL-5 = tested on: SK-MEL-5
NCI/ADR-RES = tested on: NCI/ADR-RES
SK-MEL-2 = tested on: SK-MEL-2
CCRF-CEM = tested on: CCRF-CEM
SK-MEL-28 = tested on: SK-MEL-28
SF-268 = tested on: SF-268
HOP-92 = tested on: HOP-92
NCI-H522 = tested on: NCI-H522
COLO 205 = tested on: COLO 205
UACC-257 = tested on: UACC-257
U-251 = tested on: U-251
T47D = tested on: T47D
SF-539 = tested on: SF-539
HOP-62 = tested on: HOP-62
A549 = tested on: A549
OVCAR-4 = tested on: OVCAR-4
NCI-H460 = tested on: NCI-H460
NCI-H23 = tested on: NCI-H23
M14 = tested on: M14
LOX IMVI = tested on: LOX IMVI
EKVX = tested on: EKVX
SNB-19 = tested on: SNB-19
HL-60 = tested on: HL-60

## CC(=O)N1N=C(c2c(O)ccc3ccccc23)CC1c1ccc(Cl)cc1 (stereo unspecified)
786-0
  GI50: 27.1 µM (inactive)
HT-29
  GI50: 24.7 µM (inactive)
K562
  GI50: 13.1 µM (inactive)
A498
  GI50: 26.1 µM (inactive)
DU-145
  GI50: 43.8 µM (inactive)
SR
  GI50: 6.35 µM (inactive)
CAKI-1
  GI50: 32.9 µM (inactive)
SN12C
  GI50: 18.7 µM (inactive)
HCC 2998
  GI50: 17.7 µM (inactive)
BT-549
  GI50: 21 µM (inactive)
MDA-MB-231
  GI50: 19.1 µM (inactive)
Hs-578T
  GI50: 17.1 µM (inactive)
HCT-116
  GI50: 15 µM (inactive)
OVCAR-8
  GI50: 26.9 µM (inactive)
UACC-62
  GI50: 14.1 µM (inactive)
MOLT-4
  GI50: 10.9 µM (inactive)
SNB-75
  GI50: 22 µM (inactive)
OVCAR-5
  GI50: 14.7 µM (inactive)
OVCAR-3
  GI50: 14.1 µM (inactive)
RPMI-8226
  GI50: 10.5 µM (inactive)
MDA-MB-435
  GI50: 22.4 µM (inactive)
RXF 393
  GI50: 17.1 µM (inactive)
ACHN
  GI50: 25.5 µM (inactive)
PC-3
  GI50: 17 µM (inactive)
SK-OV-3
  GI50: 28.4 µM (inactive)
Malme-3M
  GI50: 17.5 µM (inactive)
UO-31
  GI50: 19.8 µM (inactive)
TK-10
  GI50: 30.1 µM (inactive)
KM12
  GI50: 13.7 µM (inactive)
SW-620
  GI50: 28.4 µM (inactive)
IGROV-1
  GI50: 12.4 µM (inactive)
NCI-H226
  GI50: 40 µM (inactive)
MDA-N
  GI50: 19.5 µM (inactive)
SF-295
  GI50: 19.9 µM (inactive)
MCF7
  GI50: 15.5 µM (inactive)
HCT-15
  GI50: 28.4 µM
SK-MEL-5
  GI50: 21 µM (inactive)
NCI/ADR-RES
  GI50: 14.5 µM (inactive)
SK-MEL-2
  GI50: 17.5 µM (inactive)
CCRF-CEM
  GI50: 3.8 µM (inactive)
SK-MEL-28
  GI50: 27.4 µM (inactive)
SF-268
  GI50: 26.3 µM (inactive)
HOP-92
  GI50: 10.9 µM (inactive)
NCI-H522
  GI50: 22.9 µM (inactive)
COLO 205
  GI50: 19.9 µM (inactive)
UACC-257
  GI50: 27.9 µM (inactive)
U-251
  GI50: 21.9 µM (inactive)
T47D
  GI50: 37.5 µM (inactive)
SF-539
  GI50: 18.4 µM (inactive)
HOP-62
  GI50: 16 µM (inactive)
A549
  GI50: 23.6 µM (inactive)
OVCAR-4
  GI50: 19.6 µM (inactive)
NCI-H460
  GI50: 15.1 µM (inactive)
NCI-H23
  GI50: 15.1 µM (inactive)
M14
  GI50: 14.2 µM (inactive)

## CC(=O)OCC1OC(Sc2nc(-c3ccccc3)c(C#N)c(=O)n2C2OC(COC(C)=O)C(OC(C)=O)C(OC(C)=O)C2OC(C)=O)C(OC(C)=O)C(OC(C)=O)C1OC(C)=O (stereo unspecified)
786-0
  GI50: > 100 µM (inactive)
HT-29
  GI50: > 100 µM (inactive)
K562
  GI50: 32.2 µM (inactive)
A498
  GI50: > 100 µM (inactive)
DU-145
  GI50: > 100 µM (inactive)
SR
  GI50: > 100 µM (inactive)
CAKI-1
  GI50: > 100 µM (inactive)
SN12C
  GI50: > 100 µM (inactive)
HCC 2998
  GI50: 8.11 µM (inactive)
BT-549
  GI50: > 100 µM (inactive)
MDA-MB-231
  GI50: > 100 µM (inactive)
Hs-578T
  GI50: > 100 µM (inactive)
HCT-116
  GI50: > 100 µM (inactive)
OVCAR-8
  GI50: > 100 µM (inactive)
UACC-62
  GI50: > 100 µM (inactive)
LOX IMVI
  GI50: > 100 µM (inactive)
MOLT-4
  GI50: > 100 µM (inactive)
SNB-75
  GI50: > 100 µM (inactive)
OVCAR-5
  GI50: > 100 µM (inactive)
OVCAR-3
  GI50: > 100 µM (inactive)
RPMI-8226
  GI50: > 100 µM (inactive)
MDA-MB-435
  GI50: > 100 µM (inactive)
RXF 393
  GI50: > 100 µM (inactive)
ACHN
  GI50: > 100 µM (inactive)
PC-3
  GI50: > 100 µM (inactive)
SK-OV-3
  GI50: > 100 µM (inactive)
UO-31
  GI50: > 100 µM (inactive)
TK-10
  GI50: > 100 µM (inactive)
KM12
  GI50: > 100 µM (inactive)
SW-620
  GI50: > 100 µM (inactive)
IGROV-1
  GI50: > 100 µM (inactive)
NCI-H226
  GI50: > 100 µM (inactive)
MDA-N
  GI50: > 100 µM (inactive)
SF-295
  GI50: > 100 µM (inactive)
MCF7
  GI50: > 100 µM (inactive)
HCT-15
  GI50: > 100 µM
SK-MEL-5
  GI50: > 100 µM (inactive)
NCI/ADR-RES
  GI50: > 100 µM (inactive)
SK-MEL-2
  GI50: > 100 µM (inactive)
SK-MEL-28
  GI50: > 100 µM (inactive)
SF-268
  GI50: > 100 µM (inactive)
HOP-92
  GI50: > 100 µM (inactive)
NCI-H522
  GI50: > 100 µM (inactive)
COLO 205
  GI50: > 100 µM (inactive)
UACC-257
  GI50: > 100 µM (inactive)
U-251
  GI50: > 100 µM (inactive)
T47D
  GI50: > 100 µM (inactive)
SF-539
  GI50: > 100 µM (inactive)
HOP-62
  GI50: > 100 µM (inactive)
A549
  GI50: > 100 µM (inactive)
NCI-H460
  GI50: > 100 µM (inactive)
NCI-H23
  GI50: > 100 µM (inactive)
EKVX
  GI50: > 100 µM (inactive)
M14
  GI50: > 100 µM (inactive)

## O=C1OCC2=C1C(c1ccc(Cl)cc1)c1cc3c(cc1O2)OCO3 (stereo unspecified)
786-0
  GI50: 4.65 µM (inactive)
HT-29
  GI50: 3.72 µM (inactive)
K562
  GI50: 1.82 µM (inactive)
A498
  GI50: 8.24 µM (inactive)
DU-145
  GI50: 4.15 µM (inactive)
SNB-19
  GI50: 6.97 µM (inactive)
SR
  GI50: 3.03 µM (inactive)
CAKI-1
  GI50: 1.66 µM (inactive)
SN12C
  GI50: 10.5 µM (inactive)
HCC 2998
  GI50: 4.1 µM (inactive)
BT-549
  GI50: 3.37 µM (inactive)
MDA-MB-231
  GI50: > 24.3 µM (inactive)
Hs-578T
  GI50: 4.15 µM (inactive)
HCT-116
  GI50: 3 µM (inactive)
OVCAR-8
  GI50: 9.12 µM (inactive)
UACC-62
  GI50: 4.36 µM (inactive)
LOX IMVI
  GI50: 3.66 µM (inactive)
MOLT-4
  GI50: 2.74 µM (inactive)
SNB-75
  GI50: 2.49 µM (inactive)
OVCAR-5
  GI50: > 23.9 µM (inactive)
OVCAR-3
  GI50: 3.72 µM (inactive)
RPMI-8226
  GI50: 3.46 µM (inactive)
MDA-MB-435
  GI50: 0.778 µM (active)
RXF 393
  GI50: 4.06 µM (inactive)
ACHN
  GI50: 6.21 µM (inactive)
HL-60
  GI50: 2.21 µM (inactive)
PC-3
  GI50: 3.62 µM (inactive)
SK-OV-3
  GI50: 2.83 µM (inactive)
Malme-3M
  GI50: 6.41 µM (inactive)
UO-31
  GI50: 10.1 µM (inactive)
TK-10
  GI50: 8.05 µM (inactive)
KM12
  GI50: 3.45 µM (inactive)
SW-620
  GI50: 2.88 µM (inactive)
IGROV-1
  GI50: 3.56 µM (inactive)
NCI-H226
  GI50: > 100 µM (inactive)
MDA-N
  GI50: 0.902 µM (active)
SF-295
  GI50: 2.88 µM (inactive)
MCF7
  GI50: 3.16 µM (inactive)
HCT-15
  GI50: 2.83 µM
SK-MEL-5
  GI50: 3.76 µM (inactive)
NCI/ADR-RES
  GI50: 2.64 µM (inactive)
SK-MEL-2
  GI50: 3.2 µM (inactive)
CCRF-CEM
  GI50: 2.52 µM (inactive)
SK-MEL-28
  GI50: 6.21 µM (inactive)
SF-268
  GI50: 7.43 µM (inactive)
HOP-92
  GI50: > 35.8 µM (inactive)
COLO 205
  GI50: 5.55 µM (inactive)
UACC-257
  GI50: > 21.8 µM (inactive)
T47D
  GI50: 4.3 µM (inactive)
SF-539
  GI50: 2.69 µM (inactive)
HOP-62
  GI50: 3.4 µM (inactive)
A549
  GI50: 4.79 µM (inactive)
OVCAR-4
  GI50: 84.9 µM (inactive)
NCI-H460
  GI50: 3.34 µM (inactive)
NCI-H23
  GI50: 6.9 µM (inactive)
EKVX
  GI50: 21 µM (inactive)
M14
  GI50: 4.08 µM (inactive)
